The text below walks through data of patent US20080200454A1, “CARBON-LINKED TETRAHYDRO-PYRAZOLO-PYRIDINE MODULATORS OF CATHEPSIN S” (priority 2007, published 2008).

Where two headings read alike, the source gives them in different places.

The target of this assay is Recombinant human cathepsin S (CatS) (Homo sapiens, UniProt P25774). The assay is described as follows: Recombinant human cathepsin S (CatS) inhibition assay, fluorogenic substrate Z-Valine-Valine-Arginine-AMC.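 Also: Baculovirus-expressed CatS in pH 5.0 sodium acetate buffer with DTT and NaCl, fluorescence read each minute over 20 min, inhibition derived from rate slope.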
Sequence of Recombinant human cathepsin S (CatS) (P25774 115-331): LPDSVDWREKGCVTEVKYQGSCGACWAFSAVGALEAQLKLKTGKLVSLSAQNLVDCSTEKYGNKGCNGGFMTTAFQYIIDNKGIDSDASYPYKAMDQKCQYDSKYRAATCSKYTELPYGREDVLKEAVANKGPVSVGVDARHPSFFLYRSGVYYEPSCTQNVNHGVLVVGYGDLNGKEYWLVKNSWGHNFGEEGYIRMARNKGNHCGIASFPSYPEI

Experimental: Recombinant human cathepsin S (CatS) was expressed in the baculovirus system and purified in one step with a thiopropyl-sepharose column. 10-L yielded ˜700 mg of CatS and N-terminal sequencing confirmed identity. The assay is run in 150 mM sodium acetate pH 5.0 containing 1.5 mM DTT and 150 mM NaCl. […] Using 2 ng/well of CatS, the production of product is linear and yields-7-fold signal after 20 min with only 20% loss of substrate. Measurements are taken every min for 20 min. The rate is calculated from the slope of the increase in fluorescence and the percent inhibition is calculated from this.

Take “(2S)-1-(4,4′-Bipiperidin-1-yl)-3-[3-{4-chloro-3-[3-(diethylamino)prop-1-yn-1-yl]phenyl}-5-(methylsulfonyl)-4,5,6,7-tetrahydro-1H-pyrazolo[4,3-c]pyridin-1-yl]propan-2-ol [Example 471]”: the IC50 – broadly, the concentration at which inhibition is half-maximal – (read-out: CatS IC50, Table 4, average of results obtained) came out at 7420 nM.

With `CS(=O)(=O)N1CCc2c(c(-c3ccc(Cl)c(C#Cc4ccc(CNCc5ccccn5)cc4)c3)nn2CCCN2CCOCC2)C1` [Example 408, 1-[4-({2-Chloro-5-[5-(methylsulfonyl)-1-(3-morpholin-4-ylpropyl)-4,5,6,7-tetrahydro-1H-pyrazolo[4,3-c]pyridin-3-yl]phenyl}ethynyl)phenyl]-N-(pyridin-2-ylmethyl)methanamine], for the setting “CatS IC50”, the IC50 turned out to be 280 nM.

Consider `CN(C)S(=O)(=O)NCCCc1cc(-c2nn(CCCN3CCOCC3)c3c2CN(S(C)(=O)=O)CC3)ccc1Cl` [Example 86], for which the IC50 turned out to be 13000 nM.

Regarding `NC(=O)N1CCc2c(c(-c3ccc(Cl)c(C#Cc4ccc(CNCc5ccc(Cl)cc5)cc4)c3)nn2CCCN2CCSCC2)C1` [Example 160, 3-(4-Chloro-3-{[4-({[(4-chlorophenyl)methyl]amino}methyl)phenyl]ethynyl}phenyl)-1-(3-thiomorpholin-4-ylpropyl)-1,4,6,7-tetrahydro-5H-pyrazolo[4,3-c]pyridine-5-carboxamide], the IC50 came to 60 nM.

On to `CS(=O)(=O)N1CCc2c(c(-c3ccc(Cl)c(CCCNS(=O)(=O)Cc4ccccc4)c3)nn2CCCN2CCOCC2)C1` [Example 81, N-(3-{2-Chloro-5-[5-methanesulfonyl-1-(3-morpholin-4-yl-propyl)-4,5,6,7-tetrahydro-1H-pyrazolo[4,3-c]pyridin-3-yl]-phenyl}-propyl)-C-phenyl-methanesulfonamide], for which the IC50 was 5470 nM.

`CS(=O)(=O)N1CCc2c(c(-c3ccc(Cl)c(C#CCCCc4ccccc4)c3)nn2CCCN2CCOCC2)C1` [Example 43, 3-[4-Chloro-3-(5-phenyl-pent-1-ynyl)-phenyl]-5-methanesulfonyl-1-(3-morpholin-4-yl-propyl)-4,5,6,7-tetrahydro-1H-pyrazolo[4,3-c]pyridine]: the IC50 is 5450 nM.

For `CS(=O)(=O)N1CCc2c(c(-c3ccc(Cl)c(C#Cc4ccc(Cl)c(CNC5CCCC5)c4)c3)nn2CCCN2CCCCC2)C1` [Example 597, N-[2-Chloro-5-({2-chloro-5-[5-(methylsulfonyl)-1-(3-piperidin-1-ylpropyl)-4,5,6,7-tetrahydro-1H-pyrazolo[4,3-c]pyridin-3-yl]phenyl}ethynyl)benzyl]cyclopentanamine], under “CatS IC50”, the IC50 was 40 nM.

For `C[C@H]1COCCN1CCCn1nc(-c2ccc(Cl)c(C#Cc3ccc4c(c3)CNCC4)c2)c2c1CCN(S(C)(=O)=O)C2` [Example 278, 7-({2-Chloro-5-[1-{3-[(3S)-3-methylmorpholin-4-yl]propyl}-5-(methylsulfonyl)-4,5,6,7-tetrahydro-1H-pyrazolo[4,3-c]pyridin-3-yl]phenyl}ethynyl)-1,2,3,4-tetrahydroisoquinoline], for the setting “CatS IC50”, the IC50 worked out at 110 nM.

Regarding `CS(=O)(=O)N1CCc2c(c(-c3ccc(Cl)c(C#Cc4ccc5c(c4)CN[C@@H](C(=O)O)C5)c3)nn2CCCN2CCOCC2)C1` [Example 202, (3R)-7-({2-Chloro-5-[5-(methylsulfonyl)-1-(3-morpholin-4-ylpropyl)-4,5,6,7-tetrahydro-1H-pyrazolo[4,3-c]pyridin-3-yl]phenyl}ethynyl)-1,2,3,4-tetrahydroisoquinoline-3-carboxylic acid], the half-inhibitory concentration (IC50) is 390 nM.

For the molecule `CS(=O)(=O)N1CCc2c(c(-c3ccc(Cl)c(C#Cc4ccc5c(c4)CC(C(=O)N4CCCC4)NC5)c3)nn2CCCN2CCOCC2)C1` (centres unmarked) [Example 484, 6-({2-Chloro-5-[5-(methylsulfonyl)-1-(3-morpholin-4-ylpropyl)-4,5,6,7-tetrahydro-1H-pyrazolo[4,3-c]pyridin-3-yl]phenyl}ethynyl)-3-(pyrrolidin-1-ylcarbonyl)-1,2,3,4-tetrahydroisoquinoline], the IC50 came out at 180 nM.

`CC(C)(C)OC(=O)N1Cc2cc(C#Cc3cc(-c4nn(CCCN5CCOCC5)c5c4CN(S(C)(=O)=O)CC5)ccc3Cl)ccc2C[C@H]1C(=O)O` [Example 191, (3S)-7-({2-Chloro-5-[5-(methylsulfonyl)-1-(3-morpholin-4-ylpropyl)-4,5,6,7-tetrahydro-1H-pyrazolo[4,3-c]pyridin-3-yl]phenyl}ethynyl)-2-{[(1,1-dimethylethyl)oxy]carbonyl}-1,2,3,4-tetrahydroisoquinoline-3-carboxylic acid]: the IC50 amounted to 630 nM.

For `CC(C)(C)OC(=O)N1CCC(C2CCN(C[C@H](O)Cn3nc(-c4ccc(Cl)c(C#Cc5ccc(Cl)cc5)c4)c4c3CCN(S(C)(=O)=O)C4)CC2)CC1` [Example 230, 1,1-Dimethylethyl 1′-{(2S)-3-[3-{4-chloro-3-[(4-chlorophenyl)ethynyl]phenyl}-5-(methylsulfonyl)-4,5,6,7-tetrahydro-1H-pyrazolo[4,3-c]pyridin-1-yl]-2-hydroxypropyl}-4,4′-bipiperidine-1-carboxylate], the IC50 came to 10 nM.

Consider `CS(=O)(=O)N1CCc2c(c(-c3ccc(C(F)(F)F)c(CCc4ccc(Cl)cc4)c3)nn2CC(O)CN2CCOCC2)C1` (centres unmarked) [Example 147, 1-(3-{3-[2-(4-Chloro-phenyl)-ethyl]-4-trifluoromethyl-phenyl}-5-methanesulfonyl-4,5,6,7-tetrahydro-pyrazolo[4,3-c]pyridin-1-yl)-3-morpholin-4-yl-propan-2-ol], for which the half-maximal inhibitory concentration (IC50) was found to be 410 nM.

Turning to `CS(=O)(=O)N1CCc2c(c(-c3ccc(Cl)c(CCCO)c3)nn2CCCN2CCC(N3CCCC3=O)CC2)C1` [Example 313, 1-[1-(3-{3-[4-Chloro-3-(3-hydroxypropyl)phenyl]-5-(methylsulfonyl)-4,5,6,7-tetrahydro-1H-pyrazolo[4,3-c]pyridin-1-yl}propyl)piperidin-4-yl]pyrrolidin-2-one], the IC50 was found to be 1960 nM.

On to `CS(=O)(=O)N1CCc2c(c(-c3ccc(Cl)c(CCCCN4CCOCC4)c3)nn2CCCN2CCC(N3CCCC3=O)CC2)C1` [Example 113, 1-[1-(3-{3-[4-Chloro-3-(4-morpholin-4-yl-butyl)-phenyl]-5-methanesulfonyl-4,5,6,7-tetrahydro-pyrazolo[4,3-c]pyridin-1-yl}-propyl)-piperidin-4-yl]-pyrrolidin-2-one], for which the IC50 came to 3580 nM.

For `COC(=O)CNCc1cc(C#Cc2cc(-c3nn(CCCN4CCOC[C@@H]4C)c4c3CN(C(=O)C(N)=O)CC4)ccc2Cl)ccc1Cl` [Example 294, Methyl N-[(5-{[5-(5-[amino(oxo)acetyl]-1-{3-[(3S)-3-methylmorpholin-4-yl]propyl}-4,5,6,7-tetrahydro-1H-pyrazolo[4,3-c]pyridin-3-yl)-2-chlorophenyl]ethynyl}-2-chlorophenyl)methyl]glycinate], the IC50 amounted to 20 nM.

For the molecule `CS(=O)(=O)N1CCc2c(c(-c3ccc(Cl)c(C#Cc4ccc5c(c4)CN(C4CC4)CC5)c3)nn2CCCN2CCOCC2)C1` [Example 396, 7-({2-Chloro-5-[5-(methylsulfonyl)-1-(3-morpholin-4-ylpropyl)-4,5,6,7-tetrahydro-1H-pyrazolo[4,3-c]pyridin-3-yl]phenyl}ethynyl)-2-cyclopropyl-1,2,3,4-tetrahydroisoquinoline], the IC50 was determined as 230 nM.

Turning to `C[C@H]1COCCN1CCCn1nc(-c2ccc(Cl)c(C#Cc3ccc4c(c3)CN(C)CC4)c2)c2c1CCN(S(C)(=O)=O)C2` [Example 281, 7-({2-Chloro-5-[1-{3-[(3S)-3-methylmorpholin-4-yl]propyl}-5-(methylsulfonyl)-4,5,6,7-tetrahydro-1H-pyrazolo[4,3-c]pyridin-3-yl]phenyl}ethynyl)-2-methyl-1,2,3,4-tetrahydroisoquinoline], the IC50 (CatS IC50) stood at 120 nM.

Turning to `CC(=O)NC1CCN(CCCn2nc(-c3ccc(Cl)c(C#Cc4ccc(CNCc5ccc(Cl)cc5)cc4)c3)c3c2CCN(S(C)(=O)=O)C3)CC1` [Example 346, N-(1-{3-[3-(4-Chloro-3-{[4-({[(4-chlorophenyl)methyl]amino}methyl)phenyl]ethynyl}phenyl)-5-(methylsulfonyl)-4,5,6,7-tetrahydro-1H-pyrazolo[4,3-c]pyridin-1-yl]propyl}piperidin-4-yl)acetamide], the IC50 was determined as 20 nM.

For `C[C@H]1COCCN1CCCn1nc(-c2ccc(Cl)c(C#Cc3ccc(C(=O)NCCN4CCOCC4)cc3)c2)c2c1CCN(C(=O)C(N)=O)C2` [Example 169, 4-{[5-(5-[Amino(oxo)acetyl]-1-{3-[(3S)-3-methylmorpholin-4-yl]propyl}-4,5,6,7-tetrahydro-1H-pyrazolo[4,3-c]pyridin-3-yl)-2-chlorophenyl]ethynyl}-N-(2-morpholin-4-ylethyl)benzamide], the IC50 (CatS IC50) amounted to 50 nM.

For `CS(=O)(=O)N1CCc2c(c(-c3ccc(Cl)c(C#Cc4ccc(CNCc5ccc(Cl)cc5)cc4)c3)nn2CCCN2CCC(NC(=O)CO)CC2)C1` [Example 356, N-(1-{3-[3-(4-Chloro-3-{[4-({[(4-chlorophenyl)methyl]amino}methyl)phenyl]ethynyl}phenyl)-5-(methylsulfonyl)-4,5,6,7-tetrahydro-1H-pyrazolo[4,3-c]pyridin-1-yl]propyl}piperidin-4-yl)-2-hydroxyacetamide], the IC50 turned out to be 20 nM.

Regarding `CS(=O)(=O)N1CCc2c(c(-c3ccc(Cl)c(C#Cc4ccc(CNCC(F)(F)F)cc4)c3)nn2CCCN2CCN(c3ccccc3)CC2)C1` [Example 480, N-({4-[(2-Chloro-5-{5-(methylsulfonyl)-1-[3-(4-phenylpiperazin-1-yl)propyl]-4,5,6,7-tetrahydro-1H-pyrazolo[4,3-c]pyridin-3-yl}phenyl)ethynyl]phenyl}methyl)-2,2,2-trifluoroethanamine], the IC50 (CatS IC50) came to 100 nM.

With `NC(=O)N1CCc2c(c(-c3ccc(Cl)c(C#Cc4cccc(CNCc5ccccc5Cl)c4)c3)nn2CCCN2CCSCC2)C1` [Example 513, 3-(4-Chloro-3-{[3-({[(2-chlorophenyl)methyl]amino}methyl)phenyl]ethynyl}phenyl)-1-(3-thiomorpholin-4-ylpropyl)-1,4,6,7-tetrahydro-5H-pyrazolo[4,3-c]pyridine-5-carboxamide], the IC50 was 230 nM.
